Test results reported in publication PMC7435778, “Bidirectional Modulation of the Voltage-Gated Sodium (Nav1.6) Channel by Rationally Designed Peptidomimetics” (Molecules, 2020).
Like-named read-outs stand apart in the source and are kept apart here. Starred links: 1 amine or outer side, 2 acyl side, 3 side chain; linkers in the order of their positions; H or OH if unused. Non-standard residues stand in square brackets, D forms with d. Residues, ends and D or L forms follow the SMILES beside them. *: point of attachment. Tyr(OtBu) = CC(C)(C)Oc1ccc(C[C@H](N[*:1])C(=O)[*:2])cc1; Glu(OtBu) = CC(C)(C)OC(=O)CC[C@H](N[*:1])C(=O)[*:2]; Fmoc = O=C(OCC1c2ccccc2-c2ccccc21)*; Decanoyl = CCCCCCCCCC(=O)*; Cbz = O=C(OCc1ccccc1)*; Boc = CC(C)(C)OC(=O)*; Bz = O=C(c1ccccc1)*; OtBu = CC(C)(C)O*; tBu = CC(C)(C)*

T1: FGF14 (Homo sapiens, UniProt Q92915)
T1 sequence (Q92915 64-252 isoform Q92915-2): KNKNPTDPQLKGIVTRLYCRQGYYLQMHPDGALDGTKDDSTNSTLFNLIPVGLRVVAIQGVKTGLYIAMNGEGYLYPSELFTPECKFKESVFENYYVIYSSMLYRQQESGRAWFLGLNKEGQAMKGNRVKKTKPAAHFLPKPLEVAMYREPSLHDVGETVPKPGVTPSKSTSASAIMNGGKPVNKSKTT

T2: fibroblast growth factor 14 (FGF14), aa 64–252 (UniProt Q92915)
T2 sequence: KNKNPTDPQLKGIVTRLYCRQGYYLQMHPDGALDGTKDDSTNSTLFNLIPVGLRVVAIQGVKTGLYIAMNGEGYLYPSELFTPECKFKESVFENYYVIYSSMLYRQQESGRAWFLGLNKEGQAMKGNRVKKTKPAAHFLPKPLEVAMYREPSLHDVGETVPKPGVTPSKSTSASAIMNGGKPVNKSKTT


Legend:
MSNs of the NAc = test system: MSNs of the NAc; parameters: method as in PMID 29359916; conditions: previously reported; cited from earlier work
Nav1.6 channel [1] = biological target: T3, Nav1.6 channel (Homo sapiens, UniProt Q9UQD0); parameters: method as in PMID 30587448; conditions: previously reported, cited from earlier work
T3 construct: expressed in transfected cells
T3 sequence (Q9UQD0 whole entry): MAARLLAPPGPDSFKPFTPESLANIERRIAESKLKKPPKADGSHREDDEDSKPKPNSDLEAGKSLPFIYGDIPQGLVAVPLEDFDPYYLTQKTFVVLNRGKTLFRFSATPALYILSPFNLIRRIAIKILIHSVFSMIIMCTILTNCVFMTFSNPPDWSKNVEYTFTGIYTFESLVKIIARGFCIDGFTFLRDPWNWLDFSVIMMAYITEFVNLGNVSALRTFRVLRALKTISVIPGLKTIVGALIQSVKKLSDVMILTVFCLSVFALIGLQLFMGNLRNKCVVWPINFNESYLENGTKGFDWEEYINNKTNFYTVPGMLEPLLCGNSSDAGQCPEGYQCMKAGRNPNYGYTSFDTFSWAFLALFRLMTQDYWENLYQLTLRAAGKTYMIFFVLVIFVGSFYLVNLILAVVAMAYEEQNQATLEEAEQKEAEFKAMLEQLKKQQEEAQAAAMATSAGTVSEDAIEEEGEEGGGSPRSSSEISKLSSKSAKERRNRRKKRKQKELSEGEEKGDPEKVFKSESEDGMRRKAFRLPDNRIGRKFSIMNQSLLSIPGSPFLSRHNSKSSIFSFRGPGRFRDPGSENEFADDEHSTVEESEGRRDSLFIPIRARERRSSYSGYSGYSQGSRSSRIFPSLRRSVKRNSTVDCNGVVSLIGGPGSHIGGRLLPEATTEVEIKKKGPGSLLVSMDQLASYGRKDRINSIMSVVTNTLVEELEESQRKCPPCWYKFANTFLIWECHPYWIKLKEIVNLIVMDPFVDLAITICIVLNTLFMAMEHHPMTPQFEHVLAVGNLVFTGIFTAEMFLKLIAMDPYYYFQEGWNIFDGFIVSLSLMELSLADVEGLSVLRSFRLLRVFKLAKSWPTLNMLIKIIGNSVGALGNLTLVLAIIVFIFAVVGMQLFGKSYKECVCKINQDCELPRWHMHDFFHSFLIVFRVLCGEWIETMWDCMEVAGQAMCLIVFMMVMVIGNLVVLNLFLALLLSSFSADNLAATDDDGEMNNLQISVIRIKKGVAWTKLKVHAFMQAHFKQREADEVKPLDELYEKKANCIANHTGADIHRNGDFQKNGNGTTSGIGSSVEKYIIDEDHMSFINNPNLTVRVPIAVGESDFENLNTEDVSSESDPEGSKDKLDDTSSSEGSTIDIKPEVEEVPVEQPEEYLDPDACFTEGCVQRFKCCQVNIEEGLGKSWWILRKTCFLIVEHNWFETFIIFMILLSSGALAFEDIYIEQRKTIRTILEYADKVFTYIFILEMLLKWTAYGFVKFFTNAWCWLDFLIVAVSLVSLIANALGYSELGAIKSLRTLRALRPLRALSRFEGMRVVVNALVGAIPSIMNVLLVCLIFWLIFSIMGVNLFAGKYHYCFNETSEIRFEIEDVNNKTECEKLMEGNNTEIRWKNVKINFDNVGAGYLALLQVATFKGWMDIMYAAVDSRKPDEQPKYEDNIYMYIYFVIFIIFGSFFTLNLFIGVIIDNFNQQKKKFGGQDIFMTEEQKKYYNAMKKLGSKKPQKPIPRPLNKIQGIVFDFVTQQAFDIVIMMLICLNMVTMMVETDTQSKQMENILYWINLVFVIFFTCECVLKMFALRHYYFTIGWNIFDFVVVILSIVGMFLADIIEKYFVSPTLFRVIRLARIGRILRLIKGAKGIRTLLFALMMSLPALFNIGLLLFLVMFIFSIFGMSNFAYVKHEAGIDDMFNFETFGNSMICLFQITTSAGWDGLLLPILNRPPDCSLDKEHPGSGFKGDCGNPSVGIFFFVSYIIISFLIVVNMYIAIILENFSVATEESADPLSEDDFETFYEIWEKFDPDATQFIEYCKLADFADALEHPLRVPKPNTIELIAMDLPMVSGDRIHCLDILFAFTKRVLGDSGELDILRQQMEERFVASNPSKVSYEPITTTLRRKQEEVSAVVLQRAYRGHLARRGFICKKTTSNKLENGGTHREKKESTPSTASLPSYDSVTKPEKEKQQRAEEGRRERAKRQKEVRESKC

FGF14 = biological target: T1, FGF14; assay: Surface plasmon resonance binding to FGF14; conditions: for koff: read-out: koff FGF14; for kon: read-out: kon FGF14
Nav1.6 channel [2] = biological target: T3, Nav1.6 channel; assay: Whole-cell patch-clamp electrophysiology in HEK-Nav1.6 cells; assay type: cell-based; conditions: 20 µM; for Tau of Fast Inactivation: at −10 mV, DMSO 1.17 ± 0.09; for Long Term Inactivation, depolarization cycle 4 (INa/INa,Cycle 1) / Long Term Inactivation, depolarization cycle 3 (INa/INa,Cycle 1) / Long Term Inactivation, depolarization cycle 2 (INa/INa,Cycle 1): fraction of channels available; for Long Term Inactivation, depolarization cycle 4 (INa/INa,Cycle 1): DMSO 0.85 ± 0.04; for Long Term Inactivation, depolarization cycle 3 (INa/INa,Cycle 1): DMSO 0.86 ± 0.03; for Long Term Inactivation, depolarization cycle 2 (INa/INa,Cycle 1): DMSO 0.89 ± 0.03; for V1/2 of Steady-state Inactivation: DMSO –58.58 ± 1.90
Description: As such, in an effort to further investigate their seemingly inverse activities, 12 and 19 were selected for functional evaluation as modulators of Nav1.6. To do so, HEK293 cells stably expressing Nav1.6 (HEK-Nav1.6) were incubated for 30 min with 0.1% DMSO (control), 20 µM 12, or 20 µM 19. After incubation, the modulatory effects of these peptidomimetics on Nav1.6-mediated currents were assessed using whole-cell patch-clamp electrophysiology (Figure 5 and Table 4).
HEK293 cells were maintained in Dulbecco’s Modified Eagle Medium (DMEM) and F-12 (Invitrogen, Carlsbad, CA, USA), supplemented with 0.05% glucose, 0.5 mM pyruvate, 10% fetal bovine serum, 100 units/mL penicillin, and 100 µg/mL streptomycin (Invitrogen), and incubated at 37 °C with 5% CO2. The double stable HEK293 cell line expressing CD4-Nav1.6C-tail-NLuc and CLuc-FGF14 used for LCA experiments was described in a previous study and was maintained using selective antibiotics (0.5 mg/mL G418 and 5 µg/mL puromycin). HEK293 cells stably expressing the human Nav1.6 channel (hereafter referred to as HEK-Nav1.6 cells) were maintained similarly, except for the addition of 500 μg/mL G418 (Invitrogen) to maintain stable Nav1.6 expression. Cells were transfected at 80–90% confluence with equal amount (1 μg each) of plasmid pairs using Lipofectamine 3000 (Invitrogen, Waltham, MA, USA) according to the manufacturer’s instructions. HEK-Nav1.6 cells were washed and re-plated at very low density prior to electrophysiological recordings.
HEK293 cells stably expressing Nav1.6 (HEK-Nav1.6) were grown in culture as described above. Prior to experimentation, HEK-Nav1.6 cells were dissociated using Gibco TrypLE (Thermo Fisher Scientific, Walthman, MA, USA) and plated at low density onto glass coverslips situated at the base of wells in CELLSTAR® 24-Well Multi-Well Plates (Greiner Bio-One, Monroe, NC, USA). Cells were then incubated on glass cover slips for 2–3 h. After incubation, glass cover slips were transferred to the recording chamber containing 3 mL of extracellular solution comprised of the following salts (mM): 140 NaCl, 3 KCl, 1 MgCl2, 1 CaCl2, 10 HEPES, 10 glucose, pH 7.3. After incubating for thirty minutes in the extracellular solution containing either DMSO or experimental compound, recordings were then performed at room temperature (20–22 °C) using a MultiClamp 700B amplifier (Molecular Devices, Sunnyvale, CA) and borosilicate glass pipettes (resistance of 3–6 MΩ) containing intracellular solution comprised of the following salts (mM): 130 CH3O3SCs, 1 ethylene glycol tetraacetic acid (EGTA), 10 NaCl, 10 HEPES, pH 7.3. Dial settings on the amplifier were used to estimate membrane capacitance and series resistance and compensated for electronically by 70–80%. Prior to digitization and storage, data were acquired at 20 kHz and filtered at 5 kHz. Clampex 9.2 software (Molecular Devices), interfaced to the electrophysiological equipment using a Digidata 1200 analog-digital interface (Molecular Devices), was used to control all experimental parameters. To assess the relationship of INa and voltage, HEK-Nav1.6 cells were evoked by depolarizations to test potentials ranging from –100 to +60 mV from a holding potential of −70 mV, followed by a voltage pre-step pulse of −120 mV. To assess steady-state inactivation of Nav channels, HEK-Nav1.6 cells were evoked using a paired-pulse protocol in which cells were stepped, from the holding potential, to varying test potentials ranging from −120 to +20 mV (pre-pulse) prior to a test pulse to −20 mV.

[3] = test system: HEK293 cells (Clone V cells); conditions: positive control with known toxicity; cited from earlier work
[4] = biological target: T2, fibroblast growth factor 14 (FGF14), aa 64–252; assay: SPR; Biacore T100; FGF14 (17,896 RU) or Nav1.6 C-tail (6,800 RU) amine-coupled to CM5 chips; compounds 0.195–200 µM flowed at 60 µL/min, 25 °C, PBS with 0.005% Tween-20 and 2% DMSO; KD is the average of the 1:1 Langmuir kinetic fit and the steady-state fit
[5] = biological target: T2, fibroblast growth factor 14 (FGF14), aa 64–252; assay: as above; remark: listed apart in the source

Kd [4]	koff [4]	kon [4]	Molecule	koff (FGF14)	kon (FGF14)	other results
–	–	–	COC(=O)[C@H](CCCCNC(=O)OCC1c2ccccc2-c2ccccc21)NC(=O)[C@@H]1CCCN1C(=O)[C@H](CC(C)C)NC(=O)[C@H](Cc1ccccc1)NC(C)=O [ZL181] (Ac-FLPK(Fmoc)-OMe)	–	–	Firing frequencies in MSNs of the NAc (MSNs of the NAc): decreased maximal and instantaneous firing frequencies
–	–	–	CC(C)C[C@H](NC(=O)[C@H](Cc1ccccc1)NC(=O)OCc1ccccc1)C(=O)N1CCC[C@H]1C(=O)N[C@@H](CCCCNC(=O)OC(C)(C)C)C(N)=O [ZL0177] (Cbz-FLPK(Boc)-NH2)	–	–	Nav1.6-mediated peak current density (Nav1.6 channel [1]): –26.65 ± 6.3 pA/pF; Voltage-dependence of Nav1.6 channel activation (Nav1.6 channel [1]; whole-cell patch-clamp): depolarizing shift in voltage-dependence of Nav1.6 channel activation
–	–	–	CC(C)[C@H](NC(=O)[C@H](Cc1ccc(OC(C)(C)C)cc1)NC(=O)[C@H](Cc1ccc(OC(C)(C)C)cc1)NC(=O)[C@H](CCC(=O)OC(C)(C)C)NC(=O)c1ccccc1)C(N)=O [Compound 19, tert-butyl (S)-5-(((S)-1-(((S)-1-(((S)-1-amino-3-methyl-1-oxobutan-2-yl)amino)-3-(4-(tert-butoxy)phenyl)-1-oxopropan-2-yl)amino)-3-(4-(tert-butoxy)phenyl)-1-oxopropan-2-yl)amino)-4-benzamido-5-oxopentanoate] (Bz-E(OtBu)Y(tBu)Y(tBu)V-NH2)	0.013 s⁻¹	2060 M⁻¹ s⁻¹	Fold increase in binding to FGF14 (FGF14; 19 relative to 17 (Ac to benzoyl)): approximately 2 fold; Tau of Fast Inactivation (Nav1.6 channel [2]; mean ± SEM): 1.12 ± 0.07 (7) ms; Long Term Inactivation, depolarization cycle 4 (INa/INa,Cycle 1) (Nav1.6 channel [2]): 0.73 ± 0.03 (8); Long Term Inactivation, depolarization cycle 3 (INa/INa,Cycle 1) (Nav1.6 channel [2]): 0.73 ± 0.02; Long Term Inactivation, depolarization cycle 2 (INa/INa,Cycle 1) (Nav1.6 channel [2]): 0.83 ± 0.02; V1/2 of Steady-state Inactivation (Nav1.6 channel [2]; mean ± SEM): –58.53 ± 1.69 (8) mV
–	–	–	CC(=O)N[C@@H](CCC(=O)OC(C)(C)C)C(=O)N[C@@H](Cc1ccc(OC(C)(C)C)cc1)C(=O)N[C@@H](Cc1ccc(OC(C)(C)C)cc1)C(=O)N[C@H](C(N)=O)C(C)C [Compound 17, tert-butyl (S)-4-acetamido-5-(((S)-1-(((S)-1-(((S)-1-amino-3-methyl-1-oxobutan-2-yl)amino)-3-(4-(tert-butoxy)phenyl)-1-oxopropan-2-yl)amino)-3-(4-(tert-butoxy)phenyl)-1-oxopropan-2-yl)amino)-5-oxopentanoate] (Ac-E(OtBu)Y(tBu)Y(tBu)V-NH2)	0.088 s⁻¹	6030 M⁻¹ s⁻¹	–
–	–	–	CC(C)[C@H](NC(=O)[C@H](Cc1ccc(OC(C)(C)C)cc1)NC(=O)[C@H](Cc1ccc(OC(C)(C)C)cc1)NC(=O)OCC1c2ccccc2-c2ccccc21)C(N)=O [Compound 12, (9H-fluoren-9-yl)methyl ((S)-1-(((S)-1-(((S)-1-amino-3-methyl-1-oxobutan-2-yl)amino)-3-(4-(tert-butoxy)phenyl)-1-oxopropan-2-yl)amino)-3-(4-(tert-butoxy)phenyl)-1-oxopropan-2-yl)carbamate] (Fmoc-Tyr(tBu)-Tyr(tBu)-Val-NH2)	0.0186 s⁻¹	6440 M⁻¹ s⁻¹	Tau of Fast Inactivation (Nav1.6 channel [2]; mean ± SEM): 1.30 ± 0.11 (7) ms; Long Term Inactivation, depolarization cycle 4 (INa/INa,Cycle 1) (Nav1.6 channel [2]): 0.70 ± 0.04 (7); Long Term Inactivation, depolarization cycle 3 (INa/INa,Cycle 1) (Nav1.6 channel [2]): 0.76 ± 0.03; Long Term Inactivation, depolarization cycle 2 (INa/INa,Cycle 1) (Nav1.6 channel [2]): 0.88 ± 0.03; V1/2 of Activation (Nav1.6 channel [2]; mean ± SEM, DMSO –20.04 ± 0.85): –20.40 ± 0.89 (10) mV; V1/2 of Steady-state Inactivation (Nav1.6 channel [2]; mean ± SEM): –57.59 ± 0.56 (6) mV
–	–	–	CCCCCCCCCC(=O)N[C@@H](CCC(=O)OC(C)(C)C)C(=O)N[C@@H](Cc1ccc(OC(C)(C)C)cc1)C(=O)N[C@@H](Cc1ccc(OC(C)(C)C)cc1)C(=O)N[C@H](C(N)=O)C(C)C [Compound 22, tert-Butyl (S)-5-(((S)-1-(((S)-1-(((S)-1-amino-3-methyl-1-oxobutan-2-yl)amino)-3-(4-(tert-butoxy)phenyl)-1-oxopropan-2-yl)amino)-3-(4-(tert-butoxy)phenyl)-1-oxopropan-2-yl)amino)-4-decanamido-5-oxopentanoate] (Decanoyl-E(OtBu)Y(tBu)Y(tBu)V-NH2)	0.109 s⁻¹	690 M⁻¹ s⁻¹	–
–	–	–	CC/C(=C(\c1ccccc1)c1ccc(OCCN(C)C)cc1)c1ccccc1 [Tamoxifen]	–	–	Toxicity toward HEK293 cells [3]: toxic
14.3 µM	0.088 s⁻¹	6030 M⁻¹ s⁻¹	Ac-[Glu(OtBu)][Tyr(OtBu)][Tyr(OtBu)]V-NH2 (SMILES CC(=O)N[C@@H](CCC(=O)OC(C)(C)C)C(=O)N[C@@H](Cc1ccc(OC(C)(C)C)cc1)C(=O)N[C@@H](Cc1ccc(OC(C)(C)C)cc1)C(=O)N[C@H](C(N)=O)C(C)C) [compound 17 (PW0203)]	–	–	–
> 100 µM	0.109 s⁻¹	690 M⁻¹ s⁻¹	Decanoyl-[Glu(OtBu)][Tyr(OtBu)][Tyr(OtBu)]V-NH2 (SMILES CCCCCCCCCC(=O)N[C@@H](CCC(=O)OC(C)(C)C)C(=O)N[C@@H](Cc1ccc(OC(C)(C)C)cc1)C(=O)N[C@@H](Cc1ccc(OC(C)(C)C)cc1)C(=O)N[C@H](C(N)=O)C(C)C) [compound 22 (PW0207)]	–	–	–
6.49 µM	0.013 s⁻¹	2060 M⁻¹ s⁻¹	Bz-[Glu(OtBu)][Tyr(OtBu)][Tyr(OtBu)]V-NH2 (SMILES CC(C)[C@H](NC(=O)[C@H](Cc1ccc(OC(C)(C)C)cc1)NC(=O)[C@H](Cc1ccc(OC(C)(C)C)cc1)NC(=O)[C@H](CCC(=O)OC(C)(C)C)NC(=O)c1ccccc1)C(N)=O) [compound 19 (PW0204)]	–	–	Kd [5]: 6.3 µM
